Results from patent publication US20240307409A1, “ARGININE METHYLTRANSFERASE INHIBITOR AND USE THEREOF” (Cytosinlab Therapeutics Co., Ltd., priority 2021, published 2024).
pIC50: −log10 of the molar value.

How the values were obtained:
MV-4-11 cells = test: MV-4-11 cell proliferation inhibition assay; assay type: cell-based; conditions: Homo sapiens, MV4-11, 144 h; six-day assay, CellTiter-Glo
Description: • A. Purpose: to determine the effects of compounds on Toledo cells through a six-day cell proliferation assay. • B. Reagents and materials: • 1. Cell culture medium: RPMI 1640+10% FBS • 2. 384-well cell culture plate (Corning, item #3764) • 3. 0.4% Taipan Blue Staining Solution (Thermo Fisher, item #T10282) • 4. cell counting plate (Thermo Fisher, item #C10228) • 5. 50 ml reagent reservoir (Corning, item #4870) • 6. 50 ml conical sterile polypropylene centrifuge tube (Thermo Fisher, item #339653) • 7. Automatic cell counter (Thermo Fisher, item #AMQAX1000) • 8. CellTiter-Glo Luminescent Cell Viability Detection Reagent (Promega, item #G7572) • 9. SpectraMax i3x Multi-Mode Enzyme Labeling Instrument (Megaman Molecular Instruments, item #5024062) • C. Experimental method • 1. Resuspending the cells with a pipette. • 2. 0.4% Taipan blue staining solution and Toledo cells were mixed in equal proportion, and the cells were counted using an automatic cell counter. • 3. Toledo cells were diluted to a final concentration of 2000 cells per well and transferred to a 50 ml reagent reservoir. • 4. Diluted Toledo cells were added to a 384-well cell culture plate, 40 ul per well. • 5. The cells were shortly centrifuged and settled. • 6. The cells were incubated in a 37° C., 5% CO2 cell culture incubator. • 7. The substrate in the CellTiter-Glo Luminescent Cell Viability Detection Reagent was mixed with the solution. • 8. After six days, the 384-well cell culture plate was taken from the incubator and 20 ul of configured CellTiter-Glo reagent was added to each well. • 9. 384-well cell culture platewasmixed in an orbital shaker for 30 minutes. • 10. Signal of luminescence was detected with a SpectraMax i3x multi-mode enzyme labeling instrument.
Similar to the Toledo cell proliferation inhibition assay method, the difference was that MV-4-11 cells were used and the cell culture medium was IMDM+10% FBS; in step 3 of the assay method 250 cells per well was used instead;

PRMT1 = PRMT1 (Homo sapiens, UniProt Q99873); test: PRMT1 enzyme activity test; assay type: biochemical; conditions: 0.5 nM PRMT1, 3H-SAM, peptide
Sequence of PRMT1 (Q99873 whole entry): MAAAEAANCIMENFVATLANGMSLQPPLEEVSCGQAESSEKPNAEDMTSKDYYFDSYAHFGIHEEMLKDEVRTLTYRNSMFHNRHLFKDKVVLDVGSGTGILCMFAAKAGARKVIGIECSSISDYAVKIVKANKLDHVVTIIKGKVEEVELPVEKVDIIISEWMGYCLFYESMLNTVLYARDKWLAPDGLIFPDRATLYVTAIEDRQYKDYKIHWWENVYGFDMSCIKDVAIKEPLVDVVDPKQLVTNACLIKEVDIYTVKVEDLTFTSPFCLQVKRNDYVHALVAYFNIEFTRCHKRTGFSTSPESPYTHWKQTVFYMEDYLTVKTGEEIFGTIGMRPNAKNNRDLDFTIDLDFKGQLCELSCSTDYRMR
Summary of the method: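 Radiometric methylation assay: 0.5 nM PRMT1 preincubated 15 min at room temperature with compound (10-point 3-fold series, 1% DMSO) in pH 8.0 Tris buffer with Tween-20 and DTT. 0.25 uM ³H-SAM and 0.1 uM biotinylated peptide then reacted 120 min. Product captured on streptavidin FlashPlate and counted; IC50 from four-parameter fit of % inhibition.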

Toledo cells = test: Toledo cell proliferation inhibition assay; assay type: cell-based; conditions: Homo sapiens, Toledo, 144 h; six-day assay, CellTiter-Glo
Summary of the method: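 Toledo cells seeded at 2000 cells/well in RPMI 1640 + 10% FBS and incubated with compound for six days at 37° C, 5% CO2. Viability was then read by CellTiter-Glo luminescence after 30 min orbital mixing.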

MMA in RKO cells = test: RKO In Cell Western assay (MMA primary antibody); assay type: cell-based; conditions: Homo sapiens, 72 hours, read-out: RKO ICW_EC30
Description: RKO was seeded at a concentration of 20,000 cells/ml into a polylysine-coated 96-well plate (Corning #3599), with 2,000 cells per well and 100 μL of culture mediumper well. 500 nL of compound was added to the 96-well plate. 3) The 96-well plate was incubated in a 37° C., 5% CO2 incubator for 72 hours. After three days, the 96-well plate was taken from the incubator, 100 μL of 8% paraformaldehyde solution was added to each well, and the plate was placed at room temperature for 15 min. After 15 min, the liquid in the plate was shaken out and the plate was washed three times with phosphate buffer (1*PBS). The liquid in the plate was shaken out and 200 μL of membrane-breaking buffer (0.1% (v/v) Tween-20 in PBS) was added and the plate was incubated on a shaker for 30 min. After half an hour, the liquid in the plate was shaken out, and blocking buffer was added and the plate was incubated for two hours at room temperature with shaking. After that, the liquid in the plate was shaken off, and the blocking solution containing primary antibody (MMA primary antibody, CST #8711S, 1:1000 v/v) was added to the 96-well plate and the plate was incubated at 4° C. overnight with shaking. The next day, the plate was washed three times with washing solution (0.05% (v/v) Tween-20 in PBS), and a blocking solution containing secondary antibody (goat anti-rabbit IgG (H+L) Invitrogen #31460, 1:10,000 v/v) was added and the plate was incubated for two hours at room temperature. Afterwards, the 96-well plate was washed four times with washing solution. The TMB mixture was added to the 96-well plate and then the plate was incubated for 15 minutes at room temperature with shaking. After that, the reaction terminating solution was added, and the value was read at OD450 nm using an microplate reader. The plate was washed three times with washing solution, and 50 μL of janusgreen staining solution was added, and the plate was incubated for 15 minutes at room temperature with shaking. The reaction was washed ten times with water until no color residue was left. 200 μL of 0.5 M hydrochloric acid solution was added to each well and the plate was incubated for 10 min at room temperature. The value was read at OD595 nm using Flexstation.
Firstly, the ratio OD450/OD595 was calculated for each well
Each plate had six DMSO negative control groups (ZPE) and six 10 μM positive control groups (HPE), and the average of the control group ratios was used to determine the percentage of activation for each test well. The compounds to be tested were triple diluted with DMSO for a total of 8 concentration points with a starting concentration of 5 μM. The equation for calculating the activation percentage of each test well was: […]

pIC50 (MV-4-11 cells) | pIC50 (PRMT1) | SMILES | pIC50 (Toledo cells) | EC30 (MMA in RKO cells)
> 6.00 | – | CNCCN(C)Cc1ccc2[nH]c(N3CCOCC3)nc2c1C1CCN(c2cccc(C)n2)CC1 [P428] | – | –
> 6.00 | – | CNCCN(C)Cc1ncc2[nH]c(C)nc2c1C1CCN(c2cccc(C)c2)CC1 [P415] | – | –
> 6.00 | – | CNCCN(C)Cc1ccc2[nH]c(C3CCN(C)CC3)nc2c1C1CCN(c2cccc(C)c2)CC1 [P448] | – | –
> 6.00 | – | Cc1cccc(N2CCC(c3c(CN(C)CCN)ccc4[nH]c(N5CCOCC5)nc34)CC2)c1 [P425] | – | –
> 6.00 | – | CNCCN(C)Cc1ccc2[nH]c(C3=CCN(C)CC3)nc2c1C1CCN(c2cccc(C)c2)CC1 [P447] | – | –
> 6.00 | – | CNCCN(C)Cc1ccc(NCCNCC(=O)NC)nc1C1CCN(c2cccc(C)c2)CC1 [P400] | – | –
> 6.00 | – | CNCCN(C)Cc1ncc2[nH]c(=O)[nH]c2c1C1CCN(c2cccc(C)c2)CC1 [P413] | – | –
> 6.00 | – | CNCCN(C)Cc1ccc2[nH]c(N3CCCCC3)nc2c1C1CCN(c2cccc(C)c2)CC1 [P424] | – | –
> 6.00 | – | CNCCN(C)Cc1ccc2[nH]c(N3CCNCC3)nc2c1C1CCN(c2cccc(C)c2)CC1 [P440] | – | –
> 6.00 | – | CCOCC1(COCC)CCC(c2c(CN(C)CCNC)ccc3[nH]c(N4CCOCC4)nc23)CC1 [P419] | – | –
> 6.00 | 6.30 to 7.30 | CNCCN(C)Cc1ccc2[nH]c(C(=O)c3ccccc3)nc2c1C1CCN(c2cccc(C)c2)CC1 [P407] | – | –
> 6.00 | 6.30 to 7.30 | CNCCN(C)Cc1ccc2c(c1C1CCN(c3cccc(C)c3)CC1)C(=O)C(=O)N2Cc1ccc(OC)cc1 [P404] | – | –
> 6.00 | > 7.30 | CNCCN(C)Cc1ccc2[nH]c(N3CCOCC3)nc2c1C1CCN(c2cccc(C)c2)CC1 [P406, N,N′-dimethyl-N′-[[2-morpholin-4-[1-(m-tolyl)-4-piperidinyl]-1H-benzo[d]imidazol-5-yl]methyl]ethane-1,2-diamine] | – | –
> 6.00 | – | CNCCN(C)Cc1ccc2[nH]c(N3CCOCC3)nc2c1C1CCc2cc(F)c(F)cc2CC1 [P420] | – | –
> 6.00 | 6.30 to 7.30 | CNCCN(C)Cc1cnc2[nH]ncc2c1C1CCN(c2cccc(C)c2)CC1 [P409] | – | –
> 6.00 | > 7.30 | CNCCN(C)Cc1ccc2nn(C)cc2c1C1CCN(c2cccc(C)c2)CC1 [P401] | – | –
> 6.00 | – | CNCCN(C)Cc1ccc2[nH]c(N3CCOCC3)nc2c1C1CCN(c2cncc(F)c2)CC1 [P429] | – | –
> 6.00 | – | CNCCN(C)Cc1ncc2[nH]c(N3CCOCC3)nc2c1C1CCN(c2cccc(C)c2)CC1 [P414] | – | –
> 6.00 | – | CNCCN(C)Cc1ccc2[nH]c(=O)[nH]c2c1C1CCN(c2cccc(C)c2)CC1 [P261] | – | –

pIC50 (MV-4-11 cells) | pIC50 (PRMT1) | SMILES | pIC50 (Toledo cells) | EC30 (MMA in RKO cells)
> 6.00 | – | CNCCN(C)Cc1ccc2[nH]c(N3CCN(C)CC3)nc2c1C1CCN(c2cccc(C)c2)CC1 [P423] | – | –
> 6.00 | – | CCN(CCNC)Cc1ccc2[nH]c(N3CCOCC3)nc2c1C1CCN(c2cccc(C)c2)CC1 [P426] | – | –
> 6.00 | – | CNCCN(C)Cc1ccc2[nH]c(C(F)(F)F)nc2c1C1CCN(c2cccc(C)c2)CC1 [P416] | – | –
5.30 to 6.00 | 6.30 to 7.30 | CNCCN(C)Cc1ccc2c(c1C1CCN(c3cccc(C)c3)CC1)C(C)(C)C(=O)N2 [P402] | – | –
> 6.00 | – | CNCCN(C)Cc1ccc2[nH]c(N3CCN(C(=O)CCCC(=O)N4CCN(c5nc6c(C7CCN(c8cccc(C)c8)CC7)c(CN(C)CCNC)ccc6[nH]5)CC4)CC3)nc2c1C1CCN(c2cccc(C)c2)CC1 [P442] | – | –
> 6.00 | – | CNCCN(C)Cc1ccc2c(c1C1CCN(c3cccc(C)c3)CC1)CC(C)(C)C(=O)N2 [P410] | – | –
– | > 7.30 | CNCCN(C)Cc1ncccc1C1CCN(c2cccc(Cl)c2)CC1 [P089] | > 6.00 | < 250 nM
> 6.00 | > 7.30 | CNCCN(C)Cc1ccc2c(c1C1CCN(c3cccc(C)c3)CC1)C(=O)C(=O)N2 [P405] | – | –
– | > 7.30 | CNCCN(C)Cc1ncccc1N1CCc2cc(F)cc(F)c2CC1 [P106] | > 6.00 | 250 to 2500 nM
– | > 7.30 | CNCCN(C)Cc1ncccc1N1CCC(Oc2ccccc2)CC1 [P185] | > 6.00 | 250 to 2500 nM
– | > 7.30 | CNCCN(C)Cc1ncccc1C1CCN(c2cccc(OC(F)(F)F)c2)CC1 [P143] | > 6.00 | 250 to 2500 nM
– | > 7.30 | CNCCN(C)Cc1ncccc1N1CCc2cc(F)c(F)cc2CC1 [P107] | > 6.00 | 250 to 2500 nM
– | > 7.30 | CNCCN(C)Cc1ccc(F)cc1C1CCc2cc(F)c(F)cc2CC1 [P007] | > 6.00 | < 250 nM
> 6.00 | – | CNCCN(C)Cc1ccc2[nH]c(-c3cnc(C)nc3)nc2c1C1CCN(c2cccc(C)c2)CC1 [P418] | – | –
> 6.00 | – | CNCCN(C)Cc1ccc2[nH]c(C3=CCOCC3)nc2c1C1CCN(c2cccc(C)c2)CC1 [P422] | – | –
≤ 5.30 | – | CNCCN(C)Cc1cc2nc(N)[nH]c2cc1C1CCN(c2cccc(C)c2)CC1 [P408] | – | –
– | > 7.30 | CCOCC1CC=C(c2ccccc2CN(C)CCNC)CC1 (stereo not drawn) [P054] | > 6.00 | < 250 nM
– | > 7.30 | CNCCN(C)Cc1ccccc1[C@H]1CC[C@]2(CCCCO2)CC1 [P051] | > 6.00 | 250 to 2500 nM
– | > 7.30 | CNCCN(C)Cc1ncccc1[C@H]1CC[C@]2(CC1)COC(C)(C)C2 [P157] | > 6.00 | 250 to 2500 nM
